US20190269705A1, “METHODS AND MATERIALS FOR TREATING GRAFT VERSUS HOST DISEASE” (Regents of the University of Minnesota, priority 2017, published 2019)
Entries after “also recorded” stand apart in the source; their conditions may differ.

How the values were obtained:
[1] = tested on: naïve CD4+ T cells; test: Extracellular Acidification Rate on instantaneous T cell activation (Seahorse); assay type: cell-based, mouse; details: αCD3/CD28 injection in the presence of vehicle or CB839
Protocol: Experiments were carried out on Agilent Seahorse XF96 bioanalyzer (Agilent). Briefly, wild type CD4+ cells were isolated as previous and activated for 3 days on CD3/CD28 as previously described, or skewed to Th1 and Th17 subsets as described above. T cells were spun onto XF96 Cell-Tak (BD Bioscience, Cat #: 354240) coated plates and rested in Seahorse XF RPMI 1640 media supplemented with glutamine, sodium pyruvate, and glucose. For immediate metabolic response, CB839 and UK5099 were injected separately or in combination, and OCR and ECAR measured.
Experiments were carried out on Agilent Seahorse XF96 bioanalyzer (Agilent). Briefly, wild type CD4+ cells were isolated as previous and activated for 3 days on αCD3/CD28 coated plates as previously described, or skewed to Th1 and Th17 subsets as described above. T cells were isolated and spun onto XF96 Cell-Tak (BD Bioscience, Cat #: 354240) coated plates and rested in Seahorse XF RPMI 1640 media supplemented with glutamine, sodium pyruvate, and glucose. For immediate metabolic response, 1 μM CB839 and 5 μM UK5099 (Cat #: PZ0160-5MG) were injected separately or in combination, and OCR and ECAR measured. For activation response, 1 uM CB839 was injected into IL-7 maintained naïve CD4+ T cells in seahorse medium and allowed to incubate for 20 minutes, followed by soluble αCD3/CD28 injection.

[2] = tested on: CD19+ B cells; test: In vivo CAR T cells treated ex vivo; design: species or system mouse; details: CAR-T cells treated with CB839 during in vitro transduction
Excerpt: CAR T cells were produced as described elsewhere (see, e.g., Li et al., “Gammaretroviral Production and T Cell Transduction to Genetically Retarget Primary T Cells Against Cancer.” In: Lugli E, ed. T-Cell Differentiation: Methods and Protocols. New York, N.Y.: Springer New York; 2017:111-118). Briefly, spleen T cells were isolated from Thy1.1 B6 mice at day 0. Cells were then activated with mouse CD3/CD28 Dynabeads and 30 IU/ml recombinant human IL2. At day 1 and 2, cells were spin transduced twice with retrovirus carrying CARs. At day 3, cells were fed with fresh medium. At day 4, transduced T cells were harvested, beads removed, evaluated for viability, transduction efficiency, immune phenotype and ready for use. For CB839 treated CAR T cells, CB839 were added to the culture at day 1, 2 and 3 at 1 μM. For in vivo study, C57B6 mice (n=25) were i.p. injected with cyclophosphamide (CTX) at 300 mg/kg. Mice were i.v. injected with 3×10^5 CAR T cells one day after CTX injection. Peripheral blood (PB) samples were collected 1, 2, 4 and 6 weeks after CAR T injection, stained with B cell and T cell antibodies and subjected to flow cytometry. […]
CAR T cells were produced as previously described (Li et al., 2017). […] At day 4, transduced T cells were harvested, beads removed, evaluated for viability, transduction efficiency, immune phenotype and ready for use. […]

[3] = tested on: Eμ B ALL cells; test: In vitro CAR T cell co-culture with target Eμ B ALL cells; assay type: cell-based, mouse; details: CAR-T cells treated with CB839 before co-culture
Excerpt: T cells were isolated from wild type C57BL6 spleens using the Pan T Cell isolation kit (Cat #: 130-095-130) and were activated on anti-CD3 anti-CD28 coated plates with IL2 for four days with or without CB839. On days 1 and 2, T cells were transduced with retrovirus produced by Plat-E cells carrying the CAR construct targeting CD19 with GFP reporter. On day 4, CAR T cells were washed three times to remove any drug remnants and plated to equal concentrations on a 96 well plate at 5×10^5 cells per well and serial dilutions thereof. 5×10^5 Emu cells, a CD19+ B cell acute lymphoblastic leukemia cell line
(Generously provided by Dr. Davila Lab) were then added to every well to assay cell numbers. CD19+ and GFP+events were stained and counted by flow for each well after 72 hours.

## O=C(Cc1cccc(OC(F)(F)F)c1)Nc1ccc(CCCCc2nnc(NC(=O)Cc3ccccn3)s2)nn1 [CB839]
[1]
  early events in T cell activation (ECAR): did not to be affected
[2]
  CAR-T cell accumulation / persistence in vivo: accumulated in vivo to a greater extent; also recorded: enhances T cell persistence
  elimination of CD19+ targets in vivo: equivalently capable; also recorded: equally capable of eliminating CD19+ targets in vivo
[3]
  elimination of B cell leukemia cells in vitro: greater ability to eliminate B cell leukemia cells in vitro
